Test results from PubChem BioAssay (NCI).
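In this assay, cells in 96-well plates receive the compound at five concentrations for 48 hours. Endpoints are linearly interpolated between the surrounding concentrations. GI50 marks 50% less growth. TGI: concentration producing complete growth inhibition.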

Assays:
Assay in all cases: inhibition of tumour cell growth, NCI panel, 48 h
[1] = tested on: A498 renal
[2] = tested on: A549 NSCLC
[3] = tested on: ACHN renal
[4] = tested on: CAKI-1 renal
[5] = tested on: CCRF-CEM leukemia
[6] = tested on: COLO 205 colon
[7] = tested on: DU-145 prostate
[8] = tested on: EKVX NSCLC
[9] = tested on: HCC-2998 colon
[10] = tested on: HCT-116 colon
[11] = tested on: HCT-15 colon
[12] = tested on: HL-60(TB) leukemia
[13] = tested on: HOP-62 NSCLC
[14] = tested on: HOP-92 NSCLC
[15] = tested on: HS 578T breast
[16] = tested on: HT29 colon
[17] = tested on: IGROV1 ovarian
[18] = tested on: K-562 leukemia
[19] = tested on: KM12 colon
[20] = tested on: LOX IMVI melanoma
[21] = tested on: M14 melanoma
[22] = tested on: MALME-3M melanoma
[23] = tested on: MDA-MB-231 breast
[24] = tested on: MDA-MB-435
[25] = tested on: MDA-N
[26] = tested on: NCI-H226 lung
[27] = tested on: NCI-H23 lung
[28] = tested on: NCI-H460 lung
[29] = tested on: NCI-H522 lung
[30] = tested on: NCI/ADR-RES ovarian
[31] = tested on: OVCAR-3 ovarian
[32] = tested on: OVCAR-4 ovarian
[33] = tested on: OVCAR-5 ovarian
[34] = tested on: OVCAR-8 ovarian
[35] = tested on: PC-3 prostate
[36] = tested on: RXF 393 renal
[37] = tested on: SF-268 CNS
[38] = tested on: SF-295 CNS
[39] = tested on: SF-539 CNS
[40] = tested on: SK-MEL-2 melanoma
[41] = tested on: SK-MEL-28 melanoma
[42] = tested on: SK-MEL-5 melanoma
[43] = tested on: SK-OV-3 ovarian
[44] = tested on: SN12C renal
[45] = tested on: SNB-19 CNS
[46] = tested on: SNB-75 CNS
[47] = tested on: SR leukemia
[48] = tested on: SW-620 colon
[49] = tested on: T-47D breast
[50] = tested on: TK-10 renal
[51] = tested on: U251 CNS
[52] = tested on: UACC-62 melanoma
[53] = tested on: UO-31 renal
[54] = tested on: 786-0 renal
[55] = tested on: BT-549 breast
[56] = tested on: MCF7 breast
[57] = tested on: MOLT-4 leukemia
[58] = tested on: RPMI-8226 leukemia
[59] = tested on: UACC-257 melanoma

## Cc1cc2oc3c(ccc(=O)n3C)c(=O)c2c(C)c1Cl
[1]
  TGI: > 100 µM
[2]
  TGI: > 100 µM
[3]
  TGI: > 100 µM
[4]
  TGI: > 100 µM
[5]
  TGI: > 100 µM
[6]
  TGI: > 100 µM
[7]
  TGI: > 100 µM
[8]
  TGI: > 100 µM
[9]
  TGI: > 100 µM
[10]
  TGI: > 100 µM
[11]
  TGI: > 100 µM
[12]
  TGI: > 100 µM
[13]
  TGI: > 100 µM
[14]
  TGI: > 100 µM
[15]
  TGI: 93 µM
[16]
  TGI: > 100 µM
[17]
  TGI: > 100 µM
[18]
  TGI: > 100 µM
[19]
  TGI: > 100 µM
[20]
  TGI: > 100 µM
[21]
  TGI: 81.8 µM
[22]
  TGI: > 100 µM
[23]
  TGI: > 100 µM
[24]
  TGI: > 100 µM
[25]
  TGI: > 100 µM
[26]
  TGI: > 100 µM
[27]
  TGI: > 100 µM
[28]
  TGI: > 100 µM
[29]
  TGI: > 100 µM
[30]
  TGI: > 100 µM
[31]
  TGI: > 100 µM
[32]
  TGI: > 100 µM
[33]
  TGI: > 100 µM
[34]
  TGI: > 100 µM
[35]
  TGI: > 100 µM
[36]
  TGI: 95.6 µM
[37]
  TGI: > 100 µM
[38]
  TGI: > 100 µM
[39]
  TGI: 74.6 µM
[40]
  TGI: > 100 µM
[41]
  TGI: 73.1 µM
[42]
  TGI: > 100 µM
[43]
  TGI: > 100 µM
[44]
  TGI: > 100 µM
[45]
  TGI: > 100 µM
[46]
  TGI: > 100 µM
[47]
  TGI: > 100 µM
[48]
  TGI: > 100 µM
[49]
  TGI: > 100 µM
[50]
  TGI: > 100 µM
[51]
  TGI: > 100 µM
[52]
  TGI: > 100 µM
[53]
  TGI: > 100 µM

## CNC(=O)c1cc(Oc2ccc3nc(N[C@@H]4CCCC[C@H]4O)sc3c2)ccn1
[54]
  GI50: > 90.9 µM
  TGI: > 100 µM
[1]
  GI50: > 40.5 µM
  TGI: > 100 µM
[2]
  GI50: 62.5 µM
  TGI: > 100 µM
[3]
  GI50: 55.8 µM
  TGI: > 100 µM
[55]
  GI50: 31.8 µM
  TGI: > 100 µM
[4]
  GI50: 44.9 µM
  TGI: > 100 µM
[5]
  GI50: 43.1 µM
  TGI: > 100 µM
[6]
  GI50: 59.8 µM
  TGI: > 100 µM
[7]
  GI50: 71.8 µM
  TGI: > 100 µM
[8]
  GI50: 38.2 µM
  TGI: > 100 µM
[9]
  GI50: > 100 µM
  TGI: > 100 µM
[10]
  GI50: 49.1 µM
  TGI: > 100 µM
[11]
  GI50: 38.1 µM
  TGI: > 100 µM
[12]
  GI50: 62.5 µM
  TGI: > 100 µM
[13]
  GI50: > 67.3 µM
  TGI: > 100 µM
[14]
  GI50: 31.9 µM
  TGI: > 100 µM
[15]
  GI50: > 69.9 µM
  TGI: > 100 µM
[16]
  GI50: 97.8 µM
  TGI: > 100 µM
[17]
  GI50: > 77.2 µM
  TGI: > 100 µM
[18]
  GI50: 43.7 µM
  TGI: > 100 µM
[19]
  GI50: 66.3 µM
  TGI: > 100 µM
[20]
  GI50: 58.4 µM
  TGI: > 100 µM
[21]
  GI50: 36.7 µM
  TGI: > 100 µM
[22]
  GI50: 28.6 µM
  TGI: 99.2 µM
[56]
  GI50: 36.6 µM
  TGI: > 100 µM
[23]
  GI50: 82.2 µM
  TGI: > 100 µM
[24]
  GI50: 32.6 µM
  TGI: > 100 µM
[57]
  GI50: 32.8 µM
  TGI: > 100 µM
[26]
  GI50: 61.9 µM
  TGI: > 100 µM
[27]
  GI50: 59.3 µM
  TGI: > 100 µM
[28]
  GI50: 53.4 µM
  TGI: > 100 µM
[29]
  GI50: > 76.7 µM
  TGI: > 100 µM
[30]
  GI50: 49.2 µM
  TGI: > 100 µM
[31]
  GI50: 45.2 µM
  TGI: > 100 µM
[32]
  GI50: 31.2 µM
  TGI: > 100 µM
[33]
  GI50: > 100 µM
  TGI: > 100 µM
[34]
  GI50: 69.4 µM
  TGI: > 100 µM
[35]
  GI50: 33.7 µM
  TGI: > 100 µM
[58]
  GI50: > 54.1 µM
  TGI: > 100 µM
[36]
  GI50: > 100 µM
  TGI: > 100 µM
[37]
  GI50: 68 µM
  TGI: > 100 µM
[38]
  GI50: 31.6 µM
  TGI: > 100 µM
[39]
  GI50: 36.3 µM
  TGI: > 100 µM
[40]
  GI50: > 87.8 µM
  TGI: > 100 µM
[41]
  GI50: 63.3 µM
  TGI: > 100 µM
[42]
  GI50: 18.1 µM
  TGI: 38.1 µM
[43]
  GI50: > 100 µM
  TGI: > 100 µM
[44]
  GI50: > 100 µM
  TGI: > 100 µM
[45]
  GI50: > 100 µM
  TGI: > 100 µM
[46]
  GI50: 31.3 µM
  TGI: > 100 µM
[47]
  GI50: 40 µM
  TGI: > 100 µM
[48]
  GI50: > 100 µM
  TGI: > 100 µM
[49]
  GI50: 21.1 µM
  TGI: > 100 µM
[50]
  GI50: > 100 µM
  TGI: > 100 µM
[51]
  GI50: 50.1 µM
  TGI: > 100 µM
[59]
  GI50: 37.2 µM
  TGI: > 100 µM
[52]
  GI50: 49.9 µM
  TGI: > 100 µM
[53]
  GI50: 33.5 µM
  TGI: > 100 µM

## COc1cccc([C@@H]2CC(=O)c3cc4c(cc3N2)OCO4)c1
[54]
  TGI: > 100 µM
[1]
  TGI: > 100 µM
[2]
  TGI: > 100 µM
[3]
  TGI: > 100 µM
[4]
  TGI: > 100 µM
[5]
  TGI: > 100 µM
[6]
  TGI: > 100 µM
[7]
  TGI: > 100 µM
[8]
  TGI: > 100 µM
[9]
  TGI: > 100 µM
[10]
  TGI: > 100 µM
[11]
  TGI: > 100 µM
[13]
  TGI: > 100 µM
[14]
  TGI: > 100 µM
[15]
  TGI: > 100 µM
[18]
  TGI: > 100 µM
[19]
  TGI: > 100 µM
[20]
  TGI: > 100 µM
[21]
  TGI: > 100 µM
[56]
  TGI: > 100 µM
[23]
  TGI: > 100 µM
[24]
  TGI: > 100 µM
[25]
  TGI: > 100 µM
[26]
  TGI: > 100 µM
[30]
  TGI: > 100 µM
[31]
  TGI: > 100 µM
[32]
  TGI: > 100 µM
[33]
  TGI: > 100 µM
[34]
  TGI: > 100 µM
[35]
  TGI: > 100 µM
[58]
  TGI: > 100 µM
[36]
  TGI: > 100 µM
[37]
  TGI: > 100 µM
[38]
  TGI: > 100 µM
[39]
  TGI: > 100 µM
[40]
  TGI: > 100 µM
[41]
  TGI: > 100 µM
[42]
  TGI: > 100 µM
[43]
  TGI: > 100 µM
[44]
  TGI: > 100 µM
[45]
  TGI: > 100 µM
[46]
  TGI: > 100 µM
[48]
  TGI: > 100 µM
[49]
  TGI: > 100 µM
[50]
  TGI: > 100 µM
[51]
  TGI: > 100 µM
[59]
  TGI: > 100 µM
[52]
  TGI: > 100 µM
[53]
  TGI: > 100 µM
